Calls of active or inactive are those of the source.
How the values were obtained:
[1] = molecular target: T1, Histone-lysine N-methyltransferase NSD2 (Homo sapiens, UniProt O96028); format: biochemical
T1 sequence (O96028 whole entry): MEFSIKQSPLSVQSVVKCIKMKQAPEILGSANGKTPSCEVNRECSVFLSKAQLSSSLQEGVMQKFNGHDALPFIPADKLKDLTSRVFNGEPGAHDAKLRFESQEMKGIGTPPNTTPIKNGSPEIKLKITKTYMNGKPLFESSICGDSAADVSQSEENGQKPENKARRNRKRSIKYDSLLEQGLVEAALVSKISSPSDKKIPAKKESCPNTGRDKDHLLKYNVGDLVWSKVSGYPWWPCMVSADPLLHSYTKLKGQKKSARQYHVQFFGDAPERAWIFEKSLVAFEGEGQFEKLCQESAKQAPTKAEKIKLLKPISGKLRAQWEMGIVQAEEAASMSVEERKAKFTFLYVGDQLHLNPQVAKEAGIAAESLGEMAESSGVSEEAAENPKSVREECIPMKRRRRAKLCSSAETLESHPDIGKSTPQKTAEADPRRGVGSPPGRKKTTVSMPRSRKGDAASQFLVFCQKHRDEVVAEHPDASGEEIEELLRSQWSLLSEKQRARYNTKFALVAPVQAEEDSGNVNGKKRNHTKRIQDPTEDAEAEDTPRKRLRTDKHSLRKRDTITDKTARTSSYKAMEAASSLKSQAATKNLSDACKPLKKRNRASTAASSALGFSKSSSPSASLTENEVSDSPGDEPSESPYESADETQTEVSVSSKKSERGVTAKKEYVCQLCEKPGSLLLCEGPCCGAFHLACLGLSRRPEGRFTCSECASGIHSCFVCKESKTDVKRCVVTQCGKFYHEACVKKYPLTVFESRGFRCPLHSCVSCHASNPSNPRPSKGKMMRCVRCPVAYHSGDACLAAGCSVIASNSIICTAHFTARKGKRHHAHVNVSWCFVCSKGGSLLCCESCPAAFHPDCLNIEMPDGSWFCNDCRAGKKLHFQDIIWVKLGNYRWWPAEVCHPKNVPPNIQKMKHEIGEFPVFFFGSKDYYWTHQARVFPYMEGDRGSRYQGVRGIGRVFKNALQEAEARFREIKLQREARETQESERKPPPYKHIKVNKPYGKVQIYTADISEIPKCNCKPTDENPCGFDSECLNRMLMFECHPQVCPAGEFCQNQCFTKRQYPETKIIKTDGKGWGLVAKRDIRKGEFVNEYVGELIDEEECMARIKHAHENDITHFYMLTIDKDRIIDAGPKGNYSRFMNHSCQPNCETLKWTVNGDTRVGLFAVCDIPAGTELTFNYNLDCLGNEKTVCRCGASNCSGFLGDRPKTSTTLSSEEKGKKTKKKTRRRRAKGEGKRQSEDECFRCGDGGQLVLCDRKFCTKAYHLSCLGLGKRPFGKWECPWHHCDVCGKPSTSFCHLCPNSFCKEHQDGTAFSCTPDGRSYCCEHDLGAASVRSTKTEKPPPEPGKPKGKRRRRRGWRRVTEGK

[2] = Luminescence Cell-Based Dose Confirmation HTS to Identify Activators of 5'UTR Stem-Loop Driven Alpha-Synuclein mRNA Translation in H4 Neuroglioblastoma Cells. [Related pubchem assays: 1829 (Project Summary), 1814 (Primary HTS)]; format: functional
[3] = Luminescence Cell-Based Dose Response HTS to Identify Activators of Luciferase Translation or Activity in H4 […] Cells. [Related pubchem assays: 1829 (Project Summary), 1814 (Primary HTS)]; format: functional
[4] = test system: H4; assay: Luminescence Cell-Based Dose Response HTS to Identify Activators of 5'UTR Stem-Loop Driven Prion Protein mRNA Translation in H4 Neuroglioblastoma Cells. [Related pubchem assays: 1829 (Project Summary), 1814 (Primary HTS)]; format: functional; conditions: Homo sapiens
[5] = growth suppression of PTEN-null colon cells, dose response, cell-based, HCT116 PTEN knockout (AID 1047); format: functional;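 further: HCT116 colon tumor cells with PTEN knocked out; cells exposed to compound for 60 hours before readout; potency for loss of cell viability measured by luminescence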
[6] = growth suppression of beta-catenin-knockout colon cells, dose response, cell-based, HCT116, human colon tumor (AID 1045); format: functional;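 further: HCT116 colon tumor cells with beta catenin knocked out; cells exposed to compound for 60 hours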
[7] = molecular target: T2, Corticotropin-releasing factor receptor 2/Corticotropin-releasing factor-binding protein (Homo sapiens, UniProt P24387+Q13324); assay: Dose Response confirmation of uHTS hits for small molecule antagonists of the CRF-binding protein and CRF-R2 receptor complex.; format: functional; conditions: read-out: IC50_Mean
T2 sequence (Q13324 whole entry): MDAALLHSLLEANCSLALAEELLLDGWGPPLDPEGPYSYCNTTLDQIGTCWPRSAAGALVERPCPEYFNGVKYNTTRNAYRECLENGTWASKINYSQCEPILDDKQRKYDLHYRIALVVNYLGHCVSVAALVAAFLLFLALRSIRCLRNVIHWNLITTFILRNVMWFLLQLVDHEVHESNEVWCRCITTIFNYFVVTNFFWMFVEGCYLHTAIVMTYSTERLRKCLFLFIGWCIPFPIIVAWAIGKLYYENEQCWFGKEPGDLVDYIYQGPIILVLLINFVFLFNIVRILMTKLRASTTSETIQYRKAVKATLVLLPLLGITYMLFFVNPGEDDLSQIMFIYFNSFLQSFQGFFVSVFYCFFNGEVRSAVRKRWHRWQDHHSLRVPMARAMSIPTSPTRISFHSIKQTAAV
T2 sequence (P24387 whole entry): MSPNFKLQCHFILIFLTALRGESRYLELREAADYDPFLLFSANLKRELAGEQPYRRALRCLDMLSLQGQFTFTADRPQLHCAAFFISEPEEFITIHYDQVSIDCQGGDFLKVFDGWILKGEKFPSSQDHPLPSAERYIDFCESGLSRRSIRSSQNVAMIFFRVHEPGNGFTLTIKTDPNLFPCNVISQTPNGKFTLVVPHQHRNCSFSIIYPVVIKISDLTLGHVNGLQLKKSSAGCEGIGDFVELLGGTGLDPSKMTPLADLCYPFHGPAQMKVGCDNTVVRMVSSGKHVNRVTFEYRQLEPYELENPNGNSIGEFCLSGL

[8] = molecular target: T2, Corticotropin-releasing factor receptor 2/Corticotropin-releasing factor-binding protein; assay: activators of CRF receptor 2 with binding protein – uHTS hits, confirmation (AID 602473); format: functional; conditions: read-out: EC50_Mean
[9] = CRF-BP/CRF-R2 complex antagonists, dose response, cell-based, uHTS hits, 384-well (AID 651639); format: functional, Homo sapiens; conditions: read-out: IC50_Mean
[10] = inhibitors of firefly luciferase expression or activity, dose response, H4 neuroglioma cells, luminescence (AID 1990); format: functional, cell-based
[11] = Luminescence Cell-Based Dose Response HTS to Identify Inhibitors of 5'UTR Stem-Loop Driven Prion Protein mRNA Translation in H4 Neuroglioblastoma Cells. [Related pubchem assays: 1827 (Project Summary), 1813 (Primary HTS)]; format: functional
[12] = inhibitors of SNCA 5'UTR-driven reporter translation, confirmation, H4 neuroglioma cells, luminescence (AID 1988); format: functional, cell-based
[13] = molecular target: T3, Microphthalmia-associated transcription factor (Homo sapiens, UniProt O75030); assay: TRPM1 promoter luciferase signal decrease, dose response, MITF inhibitor project, cell-based, SK-MEL-5, cherry-picked, set 3 (AID 493073); format: functional
T3 sequence (O75030 whole entry): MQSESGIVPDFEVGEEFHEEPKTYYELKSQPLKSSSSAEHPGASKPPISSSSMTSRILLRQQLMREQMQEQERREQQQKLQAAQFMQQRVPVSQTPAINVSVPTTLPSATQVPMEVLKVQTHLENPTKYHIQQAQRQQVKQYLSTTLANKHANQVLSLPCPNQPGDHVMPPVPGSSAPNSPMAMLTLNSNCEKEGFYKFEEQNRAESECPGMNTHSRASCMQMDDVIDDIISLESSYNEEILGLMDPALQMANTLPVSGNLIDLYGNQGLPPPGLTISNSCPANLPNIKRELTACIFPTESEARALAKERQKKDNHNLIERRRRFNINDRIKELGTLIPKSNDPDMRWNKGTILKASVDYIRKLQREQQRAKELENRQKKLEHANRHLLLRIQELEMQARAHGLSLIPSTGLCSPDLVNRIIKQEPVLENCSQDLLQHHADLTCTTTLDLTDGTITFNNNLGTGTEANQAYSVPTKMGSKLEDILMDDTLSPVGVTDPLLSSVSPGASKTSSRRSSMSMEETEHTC

[14] = molecular target: FAD-linked sulfhydryl oxidase ALR (Homo sapiens, UniProt P55789); assay: inhibitors of human ALR sulfhydryl oxidase, dose response, biochemical, H2O2 detection, luminescence, cherry-pick (AID 493248)
[15] = inhibitors of HIV Env-driven cell fusion, dose response, cherry-pick (AID 652057); format: functional, cell-based
[16] = inhibitors of clade B AD8 Env fusion, dose response, cell-based, cherry-pick (AID 652062); format: functional;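 further: luciferase signal from cell-cell fusion driven by HIV-1 clade B AD8 Env; potency is for inhibitors of fusion seen as a drop in luminescence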
[17] = test system: Streptococcus sp. 'group A'; assay: growth inhibition of control SK(-) GAS strain, dose response, counter-screen for streptokinase expression inhibitor project, luminescence, kanamycin, BacTiterGlo, confirmation (AID 1900); format: functional, organism-based
[18] = molecular target: Induced myeloid leukemia cell differentiation protein Mcl-1 (Homo sapiens, UniProt Q07820); format: functional
[19] = test system: Streptococcus; assay: Group A Streptococcus viability loss, dose response, counter-screen for streptokinase expression inhibitor project, luminescence, BacTiterGlo (AID 1915); format: functional, organism-based;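 further: potency for reduction of bacterial viability or growth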
[20] = P. falciparum Dd2 growth inhibitors, dose response, SYBR Green, cherry-picked samples (AID 1159567); format: functional, cell-based

Induced myeloid leukemia cell differentiation protein Mcl-1, sequence (Q07820 whole entry): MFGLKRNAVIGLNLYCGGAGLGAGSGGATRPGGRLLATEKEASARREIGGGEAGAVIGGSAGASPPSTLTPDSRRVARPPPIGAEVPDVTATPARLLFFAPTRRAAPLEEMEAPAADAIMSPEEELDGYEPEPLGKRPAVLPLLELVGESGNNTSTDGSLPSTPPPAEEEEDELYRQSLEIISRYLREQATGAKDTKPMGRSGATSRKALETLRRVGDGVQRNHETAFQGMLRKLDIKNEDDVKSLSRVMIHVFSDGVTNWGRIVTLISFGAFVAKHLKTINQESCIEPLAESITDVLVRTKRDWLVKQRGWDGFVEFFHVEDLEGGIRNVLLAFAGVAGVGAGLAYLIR
FAD-linked sulfhydryl oxidase ALR, sequence (P55789 whole entry, the tested form may be a part): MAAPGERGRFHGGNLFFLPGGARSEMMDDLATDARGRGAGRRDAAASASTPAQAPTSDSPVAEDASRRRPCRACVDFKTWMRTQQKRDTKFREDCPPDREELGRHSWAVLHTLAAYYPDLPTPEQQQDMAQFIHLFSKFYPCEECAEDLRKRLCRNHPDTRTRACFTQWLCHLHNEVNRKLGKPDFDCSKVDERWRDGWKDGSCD

## CCN(CC)c1ccc(CN2CC=C(c3ccc(F)cc3)CC2)cc1
[1]
  AC50: > 20 µM (inactive)

## O=C(NCC1CCCO1)c1cc2c(s1)CCC2 (stereo not drawn)
[2]
  EC50: 20.3 µM (active)
[3]
  EC50: 18.7 µM (active)
[4]
  EC50: 50.9 µM (active)

## O=C1NC(=S)N(C2CC2)C(=O)/C1=C/Nc1ccc2c(c1)OCO2
[2]
  EC50: 95.4 µM (active)
[3]
  EC50: 13.3 µM (active)
[4]
  EC50: 18.7 µM (active)

## O=C(NCCc1ccc(F)cc1)c1[nH]nc2ccccc12
[2]
  EC50: 17.8 µM (active)
[3]
  EC50: 42 µM (active)
[4]
  EC50: 24.5 µM (active)

## C[C@@H]1CC=C[C@H]2[C@H]1C(=O)N(Cc1ccccc1)[C@H]2c1ccc(-c2cc3ccccc3s2)cc1F
[2]
  EC50: 0.251 µM (active)
[3]
  EC50: 61.8 µM (active)
[4]
  EC50: 0.11 µM (active)

## Cc1ccc(S(=O)(=O)Cc2ccc(C(=O)N3CCN(c4ccc(F)cc4)CC3)o2)cc1
[5]
  EC50: 9.74 µM (active)
[6]
  EC50: 10.1 µM (active)

## Cc1ccc2c(c1)c1c3n2CCN(C(=O)CN2CCN(C)CC2)C3CCC1 (stereo not drawn)
[5]
  EC50: 16.1 µM (active)
[6]
  EC50: 16.7 µM (active)

## CC(CNC(=O)c1ccc(OC2CCN(Cc3ccccn3)CC2)cc1)c1ccccc1 (stereo not drawn)
[2]
  EC50: 18.2 µM (active)
[3]
  EC50: 53.8 µM (active)
[4]
  EC50: 35.6 µM (active)

## COc1cc2nc3c(O)n4c(nc-3c2cc1OC)SCCC4
[2]
  EC50: > 120 µM (not active)
[3]
  EC50: 3.61 µM (active)
[4]
  EC50: 24.5 µM (active)
[7]
  IC50: 3.83 µM (active)
[8]
  EC50: > 53 µM (inactive)
[9]
  IC50: > 20 µM (inactive)

## C=CC[n+]1c(-c2ccc(C)cc2)csc1Nc1ccc(NC(C)=O)cc1
[10]
  EC50: 2.34 µM (active)
[11]
  EC50: 0.238 µM (active)
[12]
  EC50: 0.246 µM (active)
[13]
  AC50: 1.57 µM (active)

## CCCNc1ccc(C(=O)OCC)cc1[N+](=O)[O-]
[7]
  IC50: 17.6 µM (active)
[8]
  EC50: > 53 µM (inactive)
[9]
  IC50: > 20 µM (inactive)

## NC(=NOC(=O)Nc1ccccc1)c1ncc([N+](=O)[O-])s1
[2]
  EC50: > 120 µM (not active)
[3]
  EC50: > 120 µM (not active)
[4]
  EC50: > 120 µM (not active)

## COc1ccc(N2C(=O)CSC2c2ccc([N+](=O)[O-])cc2)cc1 (stereo not drawn)
[14]
  AC50: 5.9 µM (active)
[7]
  IC50: 46.8 µM (active)
[8]
  EC50: > 53 µM (inactive)
[9]
  IC50: 6.91 µM (active)

## CCN(CC)C(=O)[C@H]1CC(CC(=O)NC/C=C(\C)CCC=C(C)C)C(=O)N2CCc3c([nH]c4ccc(OC)cc34)[C@]12C (stereo partly drawn)
[7]
  IC50: 3.54 µM (active)
[8]
  EC50: > 53 µM (inactive)
[9]
  IC50: 1.33 µM (active)

## COc1ccc(-c2ccc3c(c2)[C@@H]2[C@@H](CCN2C(=O)NC2CCCC2)[C@H](CO)N3C)cc1
[15]
  AC50: 26.5 µM (active)
[16]
  AC50: 2.83 µM (active)

## CN1C(=O)c2cc(NC(=O)c3cscn3)ccc2OC[C@@H]2O[C@@H](CC(=O)NCc3ccc(Cl)c(Cl)c3)CC[C@H]21
[15]
  AC50: 48.6 µM (active)
[16]
  AC50: 3.19 µM (active)

## N#C/C(=N\Nc1ccccc1)C(=N)N1CCCCCC1
[2]
  EC50: 0.132 µM (active)
[4]
  EC50: > 120 µM (not active)

## C#CCn1c(=O)c2c(ncn2C)n(C)c1=O
[16]
  AC50: 43.1 µM (active)

## O=c1c(/C=N/c2cc(O)nc(S)n2)coc2c1ccc1ccccc12
[17]
  EC50: 0.752 µM (active)
[18]
  IC50: 4.68 µM (active)
[19]
  EC50: 20.3 µM (active)

## C[C@@H]1CN([C@@H](C)CO)C(=O)c2cc(NC(=O)Nc3ccc4c(c3)OCO4)ccc2O[C@H]1CN(C)C(=O)Nc1cccc2ccccc12
[20]
  AC50: 4.89 µM (active)

## C[C@H]1CN([C@@H](C)CO)C(=O)c2c(c3ccccc3n2C)-c2ccccc2CO[C@H]1CN(C)S(=O)(=O)c1ccccc1C#N
[20]
  AC50: 5 µM (active)

## CCCC(=O)Nc1ccc2c(c1)OC[C@@H](C)N(Cc1cc(-c3ccccc3)on1)C[C@@H](C)[C@H](OC)CN(C)C2=O
[20]
  AC50: 5.19 µM (active)

## COCC(=O)N1CC2(C1)CN(Cc1cccc(Cl)c1)[C@@H](CO)c1[nH]c3cc(OC)ccc3c12
[20]
  AC50: 12.9 µM (active)

## CS(=O)(=O)N1[C@H](C#N)[C@H](c2ccccc2-c2ccc(F)cc2)[C@H]1CO
[20]
  AC50: 16.6 µM (active)

Reference: ChEMBL document CHEMBL1201862, “PubChem BioAssay data set” (2004)
